The text below walks through data of patent US10239873B2, “7-azaindole or 4,7-diazaindole derivatives as IKKϵ epsilon and TBK1 inhibitor and pharmaceutical composition comprising same” (GREEN CROSS CORPORATION, priority 2015, dated 2019).

The target of one experiment is T1, TBK1 (Homo sapiens, UniProt Q9UHD2).
T1 construct: purchased Promega (Invitrogen is also named in the same bracket) V4158; PR8031B; V3991 (not assigned to the two kinases)
T1 sequence (Q9UHD2 1-729): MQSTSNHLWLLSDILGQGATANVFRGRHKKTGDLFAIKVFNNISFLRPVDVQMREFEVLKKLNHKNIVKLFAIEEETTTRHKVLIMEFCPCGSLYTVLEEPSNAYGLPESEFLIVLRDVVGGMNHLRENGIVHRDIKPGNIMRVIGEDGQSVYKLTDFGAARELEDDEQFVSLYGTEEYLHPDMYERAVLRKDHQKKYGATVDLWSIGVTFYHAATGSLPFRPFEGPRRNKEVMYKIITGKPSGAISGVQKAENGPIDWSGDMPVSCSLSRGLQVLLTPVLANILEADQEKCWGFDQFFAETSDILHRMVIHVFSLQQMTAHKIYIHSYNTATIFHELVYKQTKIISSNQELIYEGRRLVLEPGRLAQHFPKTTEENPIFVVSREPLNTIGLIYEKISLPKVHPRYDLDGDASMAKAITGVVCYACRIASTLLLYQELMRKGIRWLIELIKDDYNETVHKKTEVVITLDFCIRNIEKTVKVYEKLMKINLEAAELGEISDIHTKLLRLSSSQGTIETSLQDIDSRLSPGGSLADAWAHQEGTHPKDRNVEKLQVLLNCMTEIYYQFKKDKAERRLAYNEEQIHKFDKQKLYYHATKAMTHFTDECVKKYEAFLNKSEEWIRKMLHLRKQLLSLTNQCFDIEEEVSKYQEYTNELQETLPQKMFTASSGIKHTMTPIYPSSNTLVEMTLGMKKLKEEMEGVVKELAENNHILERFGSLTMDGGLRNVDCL
Nature of the experiment: ADP-Glo Kinase Assay, inhibition activity on TBK1. Format: biochemical. In outline: (§1)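 Kinase activity measured with the ADP-Glo luminescent ADP-detection kit per manufacturer's protocol, using IKKε or TBK1 kinase enzyme systems. Reaction buffer: 40 mM Tris (pH 7.5), 20 mM MgCl2, 0.1 mg/mL BSA; luminescence read on a luminometer.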
A general note: In ADP-Glo the light output rises with the ADP produced.

In the next experiment the target is T2, IKKε (Homo sapiens, UniProt Q14164).
T2 construct: purchased Promega and/or Invitrogen V4158; PR8031B; V3991 (not assigned to the two kinases)
T2 sequence (Q14164 1-716): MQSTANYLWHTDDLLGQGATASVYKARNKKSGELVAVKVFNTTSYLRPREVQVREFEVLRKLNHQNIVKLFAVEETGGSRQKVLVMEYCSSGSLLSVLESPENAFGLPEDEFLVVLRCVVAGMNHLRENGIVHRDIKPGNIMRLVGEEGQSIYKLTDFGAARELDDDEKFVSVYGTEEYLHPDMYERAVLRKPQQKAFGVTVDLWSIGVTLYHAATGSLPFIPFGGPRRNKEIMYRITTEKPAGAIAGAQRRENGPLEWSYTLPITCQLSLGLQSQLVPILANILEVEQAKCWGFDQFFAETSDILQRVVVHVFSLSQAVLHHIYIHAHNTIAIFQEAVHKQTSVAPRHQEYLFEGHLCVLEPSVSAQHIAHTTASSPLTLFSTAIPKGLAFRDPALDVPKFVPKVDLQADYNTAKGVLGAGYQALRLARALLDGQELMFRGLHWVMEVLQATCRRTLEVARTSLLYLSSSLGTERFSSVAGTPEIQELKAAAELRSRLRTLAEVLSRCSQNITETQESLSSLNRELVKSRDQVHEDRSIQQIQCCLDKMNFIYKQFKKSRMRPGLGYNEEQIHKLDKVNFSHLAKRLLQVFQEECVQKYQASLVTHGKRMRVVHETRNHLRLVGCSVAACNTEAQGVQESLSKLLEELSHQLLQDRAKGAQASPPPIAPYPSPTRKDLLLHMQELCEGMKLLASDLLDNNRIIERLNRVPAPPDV
The experiment in a line: ADP-Glo Kinase Assay, inhibition activity on IKKε. Format: biochemical. In outline:
as §1

As to `CC1C=C(c2c[nH]c3ncc(-c4ccc(CN5CCN(C)CC5)s4)cc23)CCN1C(=O)NC1CCC1` (stereo not drawn) [Example 100, N-cyclobutyl-2-methyl-4-(5-(5-((4-methylpiperazin-1-yl)methyl)thiophen-2-yl)-1H-pyrrolo[2,3-b]pyridin-3-yl)-5,6-dihydropyridine-1(2H)-carboxamide], the results for the IC50 on TBK1 and at IKKε were 5.6 nM and 35 nM, respectively.
For `CC1C=C(c2c[nH]c3ncc(-c4ccc(CN5CCOCC5)s4)cc23)CCN1C(=O)NC1CCC1` (stereo not drawn) [Example 101, N-cyclobutyl-2-methyl-4-(5-(5-(morpholinomethyl)thiophen-2-yl)-1H-pyrrolo[2,3-b]pyridin-3-yl)-5,6-dihydropyridine-1(2H)-carboxamide], the IC50 came to 10 nM on TBK1 and 29 nM against IKKε.
In the same order, the values of `CC1C=C(c2c[nH]c3ncc(-c4ccc(CN5CCN(C)CC5)s4)cc23)CCN1C(=O)NC1CCCC1` (stereo not drawn) [Example 102, N-cyclopentyl-2-methyl-4-(5-(5-((4-methylpiperazin-1-yl)methyl)thiophen-2-yl)-1H-pyrrolo[2,3-b]pyridin-3-yl)-5,6-dihydropyridine-1(2H)-carboxamide] are 4.4 nM and 13 nM.
In the same order, the values of `CC1CC(c2c[nH]c3ncc(-c4ccc(CN5CCN(C)CC5)s4)cc23)=CCN1C(=O)NC1CCCC1` (stereo not drawn) [Example 103, N-cyclopentyl-6-methyl-4-(5-(5-((4-methylpiperazin-1-yl)methyl)thiophen-2-yl)-1H-pyrrolo[2,3-b]pyridin-3-yl)-5,6-dihydropyridine-1(2H)-carboxamide] are 58 nM and 150 nM.
The matching figures for `CC1CC(c2c[nH]c3ncc(-c4ccc(CN5CCOCC5)s4)cc23)=CCN1C(=O)NC1CCCC1` (stereo not drawn) [Example 104, N-cyclopentyl-6-methyl-4-(5-(5-(morpholinomethyl)thiophen-2-yl)-1H-pyrrolo[2,3-b]pyridin-3-yl)-5,6-dihydropyridine-1(2H)-carboxamide]: 110 nM and 190 nM.
Take `CC1C=C(c2c[nH]c3ncc(-c4ccc(S(C)(=O)=O)cc4)cc23)CCN1C(=O)NC1CCCC1` (stereo not drawn) [Example 105, N-cyclopentyl-2-methyl-4-(5-(4-(methylsulfonyl)phenyl)-1H-pyrrolo[2,3-b]pyridin-3-yl)-5,6-dihydropyridine-1(2H)-carboxamide]: the IC50 was determined as 25 nM against TBK1 and 22 nM on IKKε.
The matching figures for `CC1C=C(c2c[nH]c3ncc(-c4ccc(CN5CCOCC5)s4)cc23)CCN1C(=O)NC1CCCC1` (stereo not drawn) [Example 106, N-cyclopentyl-2-methyl-4-(5-(5-(morpholinomethyl)thiophen-2-yl)-1H-pyrrolo[2,3-b]pyridin-3-yl)-5,6-dihydropyridine-1(2H)-carboxamide]: 3.1 nM and 4.7 nM.
Regarding `COc1ccc(-c2cnc3[nH]cc(C4=CC(C)N(C(=O)NC5CCCC5)CC4)c3c2)cc1OC` (stereo not drawn) [Example 108, N-cyclopentyl-4-(5-(3,4-dimethoxyphenyl)-1H-pyrrolo[2,3-b]pyridin-3-yl)-2-methyl-5,6-dihydropyridine-1(2H)-carboxamide], the IC50 on TBK1 came to 23 nM; against IKKε, 29 nM.
The matching figures for `CCC1C=C(c2c[nH]c3ncc(-c4ccc(CN5CCOCC5)s4)cc23)CCN1C(=O)NC(C)C` (stereo not drawn) [Example 109, 2-Ethyl-N-isopropyl-4-(5-(5-(morpholinomethyl)thiophen-2-yl)-1H-pyrrolo[2,3-b]pyridin-3-yl)-5,6-dihydropyridine-1(2H)-carboxamide]: 220 nM and 390 nM.
As to `CCC1CC(c2c[nH]c3ncc(-c4ccc(CN5CCOCC5)s4)cc23)=CCN1C(=O)NC(C)C` (stereo not drawn) [Example 110, 6-Ethyl-N-isopropyl-4-(5-(5-(morpholinomethyl)thiophen-2-yl)-1H-pyrrolo[2,3-b]pyridin-3-yl)-5,6-dihydropyridine-1(2H)-carboxamide], the IC50 on TBK1 was 31 nM; on IKKε, 43 nM.
In the same order, the values of `CCC1C=C(c2c[nH]c3ncc(-c4ccc(CN5CCN(C)CC5)s4)cc23)CCN1C(=O)NC(C)C` (stereo not drawn) [Example 111, 2-Ethyl-N-isopropyl-4-(5-(5-((4-methylpiperazin-1-yl)methyl)thiophen-2-yl)-1H-pyrrolo[2,3-b]pyridin-3-yl)-5,6-dihydropyridine-1(2H)-carboxamide] are 18 nM and 77 nM.
In the same order, the values of `CCC1C=C(c2c[nH]c3ncc(-c4ccc(CN5CCOCC5)cc4)cc23)CCN1C(=O)NC(C)C` (stereo not drawn) [Example 112, 6-Ethyl-N-isopropyl-4-(5-(4-(morpholinomethyl)phenyl)-1H-pyrrolo[2,3-b]pyridin-3-yl)-3,6-dihydropyridine-1(2H)-carboxamide] are 56 nM and 62 nM.
In the same order, the values of `CCC1C=C(c2c[nH]c3ncc(-c4ccc(C(=O)N5CCN(C)CC5)cc4)cc23)CCN1C(=O)NC(C)C` (stereo not drawn) [Example 113, 6-Ethyl-N-isopropyl-4-(5-(4-(4-methylpiperazine-1-carbonyl)phenyl)-1H-pyrrolo[2,3-b]pyridin-3-yl)-3,6-dihydropyridine-1(2H)-carboxamide] are 18 nM and 46 nM.
On to `CC(C)NC(=O)N1CCC(c2c[nH]c3ncc(-c4ccc(CN5CCOCC5)s4)cc23)=CC1(C)C` [Example 114, N-isopropyl-2,2-dimethyl-4-(5-(5-(morpholinomethyl)thiophen-2-yl)-1H-pyrrolo[2,3-b]pyridin-3-yl)-5,6-dihydropyridine-1(2H)-carboxamide], for which the concentration for half-maximal inhibition (IC50) turned out to be 5.9 nM at TBK1 and 8 nM at IKKε.
`CC(C)NC(=O)N1C(C)C=C(c2c[nH]c3ncc(-c4ccc(CN5CCOCC5)s4)cc23)CC1C` (stereo not drawn) [Example 115, N-isopropyl-2,6-dimethyl-4-(5-(5-(morpholinomethyl)thiophen-2-yl)-1H-pyrrolo[2,3-b]pyridin-3-yl)-3,6-dihydropyridine-1(2H)-carboxamide]: the IC50 was 360 nM against TBK1 and 430 nM against IKKε.
In the case of `CC1C=C(c2c[nH]c3ncc(-c4ccc(CN5CCOCC5)s4)cc23)CC(C)N1C(=O)NC1CCCC1` (stereo not drawn) [Example 116, N-cyclopentyl-2,6-dimethyl-4-(5-(5-(morpholinomethyl)thiophen-2-yl)-1H-pyrrolo[2,3-b]pyridin-3-yl)-3,6-dihydropyridine-1(2H)-carboxamide], the results for the IC50 on TBK1 and against IKKε were 1280 nM and 1520 nM, respectively.
In the same order, the values of `CC(C)NC(=O)N1C2C=C(c3c[nH]c4ncc(-c5ccc(CN6CCOCC6)s5)cc34)CC1CC2` (stereo not drawn) [Example 117, N-isopropyl-3-(5-(5-(morpholinomethyl)thiophen-2-yl)-1H-pyrrolo[2,3-b]pyridin-3-yl)-8-azabicyclo[3.2.1]oct-3-ene-8-carboxamide] are 2700 nM and 4790 nM.
Regarding `CC(C)NC(=O)N1C2C=C(c3c[nH]c4ncc(-c5ccc(CN6CCOCC6)s5)cc34)CC1CCC2` (stereo not drawn) [Example 118, N-isopropyl-3-(5-(5-(morpholinomethyl)thiophen-2-yl)-1H-pyrrolo[2,3-b]pyridin-3-yl)-9-azabicyclo[3.3.1]non-3-ene-9-carboxamide], the IC50 against TBK1 is 340 nM; against IKKε, 610 nM.

Usually IC50 stands for the concentration needed to halve the response being measured. Lower therefore signals greater potency.
